Consider 29 compounds from US20100317863A1, “Glucocorticoid Mimetics, Methods of Making Them, Pharmaceutical Compositions and Uses Thereof” (BOEHRINGER INGELHEIM INTERNATIONAL GMBH, priority 2007, published 2010).

The assay deals with T1, human glucocorticoid receptor (GR) complex (Homo sapiens, UniProt P04150).
T1 construct: made in house; host or cells: insect expression system (baculovirus lysate)
T1 sequence (P04150 1-777): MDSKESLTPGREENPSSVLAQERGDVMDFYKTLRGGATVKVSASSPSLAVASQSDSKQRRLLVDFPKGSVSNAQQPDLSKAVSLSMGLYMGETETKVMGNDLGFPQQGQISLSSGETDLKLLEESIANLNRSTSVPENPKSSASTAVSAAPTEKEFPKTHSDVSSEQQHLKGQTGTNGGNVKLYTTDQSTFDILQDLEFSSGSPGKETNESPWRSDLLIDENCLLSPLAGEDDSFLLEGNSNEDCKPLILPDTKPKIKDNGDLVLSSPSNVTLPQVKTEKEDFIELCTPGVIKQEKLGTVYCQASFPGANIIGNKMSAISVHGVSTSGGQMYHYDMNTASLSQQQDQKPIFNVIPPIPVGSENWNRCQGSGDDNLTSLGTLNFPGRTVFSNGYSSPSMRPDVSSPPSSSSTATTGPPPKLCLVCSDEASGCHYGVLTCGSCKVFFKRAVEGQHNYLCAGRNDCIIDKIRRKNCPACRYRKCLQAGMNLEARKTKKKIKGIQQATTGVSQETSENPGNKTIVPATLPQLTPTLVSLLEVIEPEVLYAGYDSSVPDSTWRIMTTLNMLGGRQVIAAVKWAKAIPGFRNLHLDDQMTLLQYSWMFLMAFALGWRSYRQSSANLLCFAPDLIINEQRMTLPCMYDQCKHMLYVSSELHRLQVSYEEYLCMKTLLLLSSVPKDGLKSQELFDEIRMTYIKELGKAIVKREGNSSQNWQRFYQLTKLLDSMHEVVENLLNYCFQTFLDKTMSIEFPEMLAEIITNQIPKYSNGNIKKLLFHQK
Put plainly: Glucocorticoid Receptor Competitive Binding Assay (fluorescence polarization). As to conditions: competition with TAMRA-labeled dexamethasone; potent activity. As to the method: Compounds of the invention were evaluated for binding to the steroid receptor by a fluorescence polarization competitive binding assay. Detailed descriptions for preparation of recombinant glucocorticoid receptor (GR) complex used in the assay is described in U.S. Patent Application Publication No. US 2003/0017503, filed May 20, 2002, and incorporated herein by reference in its entirety. Preparation of the tetramethylrhodamine (TAMRA)-labeled dexamethasone probe was accomplished using a standard literature procedure (M. Pons et al., J. Steroid Biochem., 1985, 22, pp. 267-273).
This assay uses fluorescence polarization (FP) to quantitate the ability of test compounds to compete with tetramethylrhodamine (TAMRA)-labeled dexamethasone for binding to a human glucocorticoid receptor (GR) complex prepared from an insect expression system. The assay buffer was: 10 mM TES, 50 mM KCl, 20 mM Na2MoO4.2H2O, 1.5 mM EDTA, 0.04% w/v CHAPS, 10% v/v glycerol, 1 mM dithiothreitol, pH 7.4. Test compounds were dissolved to 1 mM in neat DMSO and then further diluted to 10× assay concentration in assay buffer supplemented with 10% v/v DMSO. Test compounds were serially diluted at 10× assay concentrations in 10% DMSO-containing buffer in 96-well polypropylene plates. Binding reaction mixtures were prepared in 96-well black Dynex microtiter plates by sequential addition of the following assay components to each well: 15 μL of 10× test compound solution, 85 μL of GR-containing baculovirus lysate diluted 1:170 in assay buffer, and 50 μL of 15 nM TAMRA-labeled dexamethasone. Positive controls were reaction mixtures containing no test compound; negative controls (blanks) were reaction mixtures containing 0.7 μM to 2 μM dexamethasone. The binding reactions were incubated for 1 hour at room temperature and then read for fluorescence polarization in the LJL Analyst set to 550 nm excitation and 580 nm emission, with the Rhodamine 561 dichroic mirror installed. IC50 values were determined by iterative non-linear curve fitting of the FP signal data to a 4-parameter logistic equation.

Compound `CC[C@@H](Cn1cc(C)c2ccccc21)NS(=O)(=O)c1c(C)cc(C)cc1N` [2-Amino-4,6-dimethyl-N—[(S)-1-(3-methylindol-1-ylmethyl)propyl]benzenesulfonamide] had a half-maximal inhibitory concentration (IC50) of at most 100 nM.
The figure for `CC[C@@H](Cn1cc(C#N)c2cc(F)ccc21)NS(=O)(=O)c1c(Cl)cc(-c2ccc(N(C)C)cc2)cc1Cl` [3,5-Dichloro-4′-dimethylaminobiphenyl-4-sulfonic acid [(S)-1-(3-cyano-5-fluoroindol-1-ylmethyl)propyl]amide] is at most 100 nM; for `CC[C@@H](CN1CCCc2cc(C#N)ccc21)NS(=O)(=O)c1c(C)cc(C)cc1C` [N—[(S)-1-(6-Cyano-3,4-dihydro-2H-quinolin-1-ylmethyl)propyl]-2,4,6-trimethylbenzenesulfonamide] it is at most 100 nM.
The figure for `CC[C@@H](Cn1cc(-c2ccccc2)c2ccccc21)NS(=O)(=O)c1c(N)cc(Cl)cc1Cl` [2-Amino-4,6-dichloro-N—[(S)-1-(3-phenylindol-1-ylmethyl)propyl]benzenesulfonamide] is at most 100 nM; for `Cc1cc(C)c(S(=O)(=O)NC(CN2CCCc3ccccc32)C(C)C)c(C)c1` (centres unmarked) [N-[1-(3,4-Dihydro-2H-quinolin-1-ylmethyl)-2-methylpropyl]-2,4,6-trimethylbenzenesulfonamide] it is at most 100 nM.
For `CC[C@@H](Cn1cc(C)c2ccccc21)NS(=O)(=O)c1c(C)cc(C)cc1Br` [2-Bromo-4,6-dimethyl-N—[(S)-1-(3-methylindol-1-ylmethyl)propyl]benzenesulfonamide], the IC50 was at most 100 nM.
The value for `CC[C@@H](Cc1cccc2ccn(C)c12)NS(=O)(=O)c1c(C)cc(C)cc1C` [2,4,6-Trimethyl-N—[(S)-1-(1-methyl-1H-indol-7-ylmethyl)propyl]benzenesulfonamide] was at most 100 nM; that for `Cc1cc(C)c(S(=O)(=O)NC(Cn2ccc3ccccc32)C(C)(C)C)c(C)c1` (centres unmarked) [N-(1-Indol-1-ylmethyl-2,2-dimethylpropyl)-2,4,6-trimethylbenzenesulfonamide] was at most 100 nM.
Turning to `CC[C@@H](Cn1ccc2cc(C(=O)OC)ccc21)NS(=O)(=O)c1c(C)cc(C)cc1C` [1-[(S)-2-(2,4,6-Trimethylbenzenesulfonylamino)butyl]-1H-indole-5-carboxylic acid methyl ester], the half-inhibitory concentration (IC50) was at most 100 nM.
`CC[C@@H](Cc1ccc2ccn(C)c2c1)NS(=O)(=O)c1c(C)cc(C)cc1C` [2,4,6-Trimethyl-N—[(S)-1-(1-methyl-1H-indol-6-ylmethyl)propyl]benzenesulfonamide] returned an IC50 of at most 100 nM.
`CC(C)[C@@H](Cn1cc(C#N)c2ccccc21)NS(=O)(=O)c1c(N)cc(Cl)cc1Cl` [2-Amino-4,6-dichloro-N—[(S)-1-(3-cyanoindol-1-ylmethyl)-2-methylpropyl]benzenesulfonamide]: the IC50 is at most 100 nM.
The value for `Cc1cc(C)c(S(=O)(=O)N[C@@H](C)Cn2cc(CC#N)c3ccccc32)c(N)c1` [2-Amino-N—[(S)-2-(3-cyanomethylindol-1-yl)-1-methylethyl]-4,6-dimethylbenzenesulfonamide] was at most 100 nM; that for `CC[C@@H](Cn1cc(CC#N)c2ccccc21)NS(=O)(=O)c1c(C)cc(C)cc1C` [N—[(S)-1-(3-Cyanomethylindol-1-ylmethyl)propyl]-2,4,6-trimethylbenzenesulfonamide] was at most 100 nM.
`CC[C@@H](Cn1ccc2ccccc21)NS(=O)(=O)c1c(N)cc(Cl)cc1Cl` [2-Amino-4,6-dichloro-N—((S)-1-indol-1-ylmethylpropyl)benzenesulfonamide] displayed an IC50 of at most 100 nM.
In turn, `Cc1cc(C)c(S(=O)(=O)N[C@@H](C)Cn2cc(C#N)c3cc(F)ccc32)c(N)c1` [2-Amino-N—[(S)-2-(3-cyano-5-fluoroindol-1-yl)-1-methylethyl]-4,6-dimethylbenzenesulfonamide] registered an IC50 of at most 100 nM.
Take `CC[C@@H](Cn1c(C)c(C#N)c2ccccc21)NS(=O)(=O)c1c(C)cc(C)cc1C` [N—[(S)-1-(3-Cyano-2-methylindol-1-ylmethyl)propyl]-2,4,6-trimethylbenzenesulfonamide]: the IC50 was at most 100 nM.
`CC[C@@H](Cn1cc(C#N)c2cc(F)ccc21)NS(=O)(=O)c1c(Cl)cc(Br)cc1Cl` [4-Bromo-2,6-dichloro-N—[(S)-1-(3-cyano-5-fluoroindol-1-ylmethyl)propyl]benzenesulfonamide]: the IC50 is at most 100 nM.
In the case of `CC[C@@H](Cc1cccc2c1ccn2C)NS(=O)(=O)c1c(C)cc(C)cc1C` [2,4,6-Trimethyl-N—[(S)-1-(1-methyl-1H-indol-4-ylmethyl)propyl]benzenesulfonamide], the IC50 is at most 100 nM.
The figure for `Cc1ccc2c(c1)CCCN2CC(NS(=O)(=O)c1c(Cl)cc(Cl)cc1Cl)C(C)C` (centres unmarked) [2,4,6-Trichloro-N-[2-methyl-1-(6-methyl-3,4-dihydro-2H-quinolin-1-ylmethyl)propyl]benzenesulfonamide] is at most 100 nM.
For the compound `CCC(Cn1cc(C)c2ccccc21)NS(=O)(=O)c1c(C)cc(C)cc1C` (centres unmarked) [2,4,6-Trimethyl-N-[1-(3-methylindol-1-ylmethyl)propyl]benzenesulfonamide], the IC50 was at most 100 nM.
The figure for `CC[C@@H](CN1CCCc2cc(Br)ccc21)NS(=O)(=O)c1c(C)cc(C)cc1C` [N—[(S)-1-(6-Bromo-3,4-dihydro-2H-quinolin-1-ylmethyl)propyl]-2,4,6-trimethylbenzenesulfonamide] is at most 100 nM; for `CC[C@@H](Cn1cc(C=O)c2cc(F)ccc21)NS(=O)(=O)c1c(C)cc(C)cc1C` [N—[(S)-1-(5-Fluoro-3-formylindol-1-ylmethyl)propyl]-2,4,6-trimethylbenzenesulfonamide] it is at most 100 nM; for `CC[C@@H](Cn1cc(C)c2cccc(F)c21)NS(=O)(=O)c1c(C)cc(C)cc1N` [2-Amino-N—[(S)-1-(7-fluoro-3-methylindol-1-ylmethyl)propyl]-4,6-dimethylbenzenesulfonamide] it is at most 100 nM.
The compound `CC[C@@H](Cn1cc(C#N)c2cccc(F)c21)N(C)S(=O)(=O)c1c(C)cc(C)cc1N` [2-Amino-N—[(S)-1-(3-cyano-7-fluoroindol-1-ylmethyl)propyl]-4,6,N-trimethylbenzenesulfonamide] gave an IC50 of at most 100 nM.
The value for `CC(C)C(Cn1ccc2ccccc21)NS(=O)(=O)c1c(N)cc(Cl)cc1Cl` (centres unmarked) [2-Amino-4,6-dichloro-N-(1-indol-1-ylmethyl-2-methylpropyl)benzenesulfonamide] was at most 100 nM.
Compound `CC[C@@H](Cn1cc(C(N)=O)c2cc(F)ccc21)NS(=O)(=O)c1c(Cl)cc(Br)cc1Cl` [1-[(S)-2-(4-Bromo-2,6-dichlorobenzenesulfonylamino)butyl]-5-fluoro-1H-indole-3-carboxylic acid amide] displayed an IC50 of at most 100 nM.
The value for `CC[C@@H](Cn1cc(Br)c2cccnc21)NS(=O)(=O)c1c(C)cc(C)cc1C` [N—[(S)-1-(3-Bromopyrrolo[2,3-b]pyridin-1-ylmethyl)propyl]-2,4,6-trimethylbenzenesulfonamide] was at most 100 nM; that for `CC[C@@H](Cn1cc(C#N)c2cc(F)ccc21)NS(=O)(=O)c1c(C)cc(C)cc1N` [2-Amino-N—[(S)-1-(3-cyano-5-fluoroindol-1-ylmethyl)propyl]-4,6-dimethylbenzenesulfonamide] was at most 100 nM.
Turning to `Cc1cc(C)c(S(=O)(=O)N[C@@H](C)Cn2cc(C)c3ccccc32)c([N+](=O)[O-])c1` [2,4-Dimethyl-N—[(S)-1-methyl-2-(3-methylindol-1-yl)-ethyl]-6-nitrobenzenesulfonamide], the IC50 is at most 100 nM.
